{"source": "patent US6737039B2", "about": "“Methods for detecting lesions in dense breast tissue using LHRH antagonists” (Praecis Pharmaceutics, Inc., priority 1998, dated 2004)", "key": {"[1]": {"test_system": "plasma testosterone levels", "test": "single dose in male rats, plasma testosterone", "type": "in vivo", "experimental": "(§1) Moreover, upon administration, PPI-149 rapidly reduces sex hormone levels to castrate levels. […] Testosterone levels returned to normal by 24 hours after the 300 μg/kg dose, but not until 72 hours after the 1000 μg/kg dose."}, "[2]": {"test_system": "plasma testosterone levels", "test": "eight intravenous doses every three hours, plasma testosterone", "type": "in vivo, rats", "experimental": "as §1"}, "[3]": {"test_system": "testosterone levels", "test": "continuous subcutaneous infusion via osmotic pump, testosterone", "type": "in vivo, rats", "experimental": "as §1"}, "[4]": {"test_system": "histamine release", "from_the_text": "Histamine-releasing activity of an LHRH antagonist can be assayed by the method described in U.S. Pat. No. 4,851,385 to Roeske."}}, "note": "Non-standard residues stand in square brackets, D forms with d. Residues, ends and D or L forms follow the SMILES beside them. dPhe(4-Cl) = N[C@H](Cc1ccc(Cl)cc1)C(=O)O; d2Nal = N[C@H](Cc1ccc2ccccc2c1)C(=O)O; Lys(iPr) = CC(C)NCCCC[C@H](N)C(=O)O; NMeY = CN[C@@H](Cc1ccc(O)cc1)C(=O)O; d3Pal = N[C@H](Cc1cccnc1)C(=O)O", "data": [{"smiles": "CC(=O)N[C@H](Cc1ccc2ccccc2c1)C(=O)N[C@H](Cc1ccc(Cl)cc1)C(=O)N[C@H](Cc1cccnc1)C(=O)N[C@@H](CO)C(=O)N(C)[C@@H](Cc1ccc(O)cc1)C(=O)N[C@H](CC(N)=O)C(=O)N[C@@H](CC(C)C)C(=O)N[C@@H](CCCCNC(C)C)C(=O)N1CCC[C@H]1C(=O)N[C@H](C)C(N)=O", "note": "[PPI-149, Ac-D-Nal^1,4-Cl-D-Phe^2, D-Pal^3, N—Me-Tyr^5, D-Asn^6, Lys(iPr)^8, D-Ala^10-LHRH] (Ac-[d2Nal][dPhe(4-Cl)][d3Pal]S[NMeY][dN]L[Lys(iPr)]P[dA]-NH2)", "values": [{"measurement": "time for testosterone levels to return to normal", "setting": "[1]; single dose 300 μg/kg", "value": "≤ 24", "unit": "h"}, {"measurement": "time for testosterone levels to return to normal", "setting": "[1]; single dose 1000 μg/kg", "value": 72, "unit": "h"}, {"measurement": "plasma testosterone levels", "setting": "[1]; single dose 300 or 1000 μg/kg, by 6 hours post-administration", "value": "decreased to nearly undetectable levels"}, {"measurement": "plasma testosterone levels", "setting": "[2]; eight intravenous doses of 1 μg/kg every three hours (8 μg/kg/day)", "value": "significant decrease"}, {"measurement": "testosterone levels", "setting": "[2]; eight intravenous doses of 10 μg/kg every three hours (80 μg/kg/day)", "value": "castrate levels of testosterone were achieved"}, {"measurement": "recovery of testosterone levels following pump removal", "setting": "[3]; after four weeks of continuous subcutaneous infusion", "value": "complete within two weeks"}, {"measurement": "time castration level was maintained by subsequent low doses", "setting": "[3]; after the high dose, 5, 15 or 50 μg/kg/day by continuous subcutaneous infusion", "value": 21, "unit": "days"}, {"measurement": "time to castrate levels of testosterone", "setting": "[3]; continuous subcutaneous infusion, 300 or 1000 μg/kg/day for two weeks", "value": "≤ 7", "unit": "days"}, {"measurement": "histamine releasing activity", "setting": "[4]", "value": "low"}]}]}
